# Assays:
# [1] = tested on: cultured dorsal root ganglion (DRG) neurons; assay: Calcium flux in cultured DRG neurons (Fura-2AM calcium imaging); assay type: cell-based, mice
# Description: Methods: Assessment of Compound 1 Induced Calcium Flux in Cultured DRG Neurons To evaluate the effect of Compound 1 and Compound 2 on calcium flux in cultured dorsal root ganglion (DRG) neurons isolated from 8-week-old male mice, the following protocols were performed:
# • 8-week-old C57BL6 male mice • Fura-2AM (calcium indicator dye) • Compound 1 (at concentrations of 1 μM and 10 μM) • Compound 2 (at concentrations of 1 μM and 10 μM) • ATP (P2X3R agonist, 10 μM) • Capsaicin (TRPV1 ligand, 10 μM) • KCl (50 mM) • Calcium imaging setup (calcium microscope)
# • Euthanize 8-week-old male mice according to ethical guidelines. • Harvest the dorsal root ganglia (DRG) from the mice.
# • Culture the DRG neurons in appropriate growth media for 24 hours. 3. […]
# • Measure and record the average calcium flux (A). • Determine the percentage of responding neurons, identifying responding neurons as those with an f340/f380 fluorescence ratio >10% (B).
# Eight-week-old C57BL6 male mice were euthanized, DRG harvested, and neurons cultured for 24 hours. The neurons were then loaded with Fura-2AM, a calcium-responsive dye, and single-neuron calcium flux was recorded by calcium microscopy. […] Average calcium flux (FIG. 1A) and the percentage (FIG. 1B) of responding neurons (identified as f340/f380>10% fluorescence) are shown. […]
# C57BL6 mice = assay: CFA inflammatory pain model, Blackbox behavioral analysis of hind paw usage; assay type: in vivo; conditions: for reversal of CFA-induced mechanical hypersensitivity: beginning at 24 hours after intraplantar administration
# Excerpt: To evaluate the effect of different treatments on voluntary pain-related behaviors in mice, we used the Blackbox behavioral analysis system, as previously described (Zhang, et al., PAIN, 2022 Dec. 1; 163 (12): 2326-2336, incorporated herein by reference in its entirety).
# • Male and female C57BL6 mice (n=5 per group) • Complete Freund's Adjuvant (CFA, Sigma) • Saline • PBS • DMSO • Compound 1 • Compound 2 • Syringes (for injections) • Hargreaves apparatus (for thermal pain testing) • Blackbox behavioral analysis setup
# • Divide mice into groups (n=10 per group). • Inject 20 μL of CFA or saline into the right hind paw of each mouse.
# • 24 hours after CFA injection, randomly assign mice to the following groups: • Control Group: PBS+PBS • CFA+PBS Group • CFA+DMSO Group • CFA+Compound 1 Group • CFA+Compound 2 Group
# • Inject the designated treatment (PBS (20 μL), DMSO (20 μL), Compound 1 (1 μM in 20 μL PBS), or Compound 2 (1 μM in 20 μL DMSO)) into the plantar right paw of each mouse according to their assigned group.
# • Perform Blackbox behavioral analysis and Hargreaves test at the following time points after drug injection: 1 hour, 3 hours, 6 hours, and 24 hours.
# • Blackbox Behavioral Analysis: • Place each mouse in the Blackbox apparatus for 10 minutes. • Record and analyze behaviors indicative of pain or discomfort (e.g., grooming, paw licking, flinching).
# • Record the data for each mouse at each time point. • Compare the results across different groups to assess the effects of the treatments on pain response.
# This protocol outlines the steps to assess the impact of different treatments on pain response in mice using Blackbox behavioral analysis. Mice are injected with CFA or saline, followed by treatment with Compound 1 or Compound 2, and negative controls using vehicle (PBS or DMSO) alone.
# • 1. Control Group: PBS+PBS • 2. CFA+PBS Group • 3. CFA+DMSO Group • 4. CFA+Compound 1 Group • 5. CFA+Compound 2 Group
# • 1 hour after drug injection • 3 hours after drug injection • 6 hours after drug injection • 24 hours after drug injection Precise timing and consistent handling throughout the experiment were utilized to maintain the validity of the results.
# Effect of Compound 1. Eight-week-old male and female mice (n=5 mice/group) were injected with CFA (20 μL; intradermal) or saline (20 μL) into the right hind paw. Left (contralateral) hindpaw luminance (FIG. 3A) and ratio of time (FIG. 3B), as well as right hindpaw luminance (FIG. 4A) and ratio of time (FIG. 4B), were assessed as surrogates for mechanical pain hypersensitivity at 1-, 3-, 6-, and 24-hours post-treatment.
# Data were analyzed using a two-way ANOVA to assess the effects of CFA injection and subsequent treatments on hindpaw usage and thermal pain hypersensitivity. Post-hoc comparisons were performed using Dunnett's test to identify significant differences between treatment groups.
# Effect of Compound 2. Eight-week-old male and female mice (n=5 mice/group) were injected with CFA (20 μL; intradermal) or saline (20 μL) into the right hind paw. Left (contralateral) hind paw luminance (FIG. 5A) and ratio of time (FIG. 5B), as well as right hindpaw luminance (FIG. 6A) and ratio of time (FIG. 6B), were assessed as a readout of mechanical pain hypersensitivity at 1-, 3-, 6-, and 24-hours post-treatment.
# Data were analyzed using a two-way ANOVA to assess the effects of CFA injection and subsequent treatments on hindpaw usage (mechanical hypersensitivity). Post-hoc comparisons were performed using Dunnett's test to identify significant differences between treatment groups.
# [2] = Compound 1, 1 μM in 20 μL PBS, plantar right paw, 24 hours after CFA, 1, 3, 6, 24 hours post-treatment
Structure (SMILES),calcium flux / activation of DRG neurons (interpretation) [1],"left (contralateral) paw usage after CFA in the right paw, compared to control mice (C57BL6 mice; Compound 2, 1 μM in 20 μL DMSO, plantar right paw, 24 hours after CFA, 1, 3, 6, 24 hours post-treatment)","CFA-induced durable reduction of right (injured) paw usage (C57BL6 mice; Compound 2, 1 μM in 20 μL DMSO, plantar right paw, effect beginning 24 hours after compound administration)",reversal of CFA-induced mechanical hypersensitivity (C57BL6 mice),CFA-induced durable reduction of right paw usage (C57BL6 mice; [2]),"left (contralateral) paw usage after CFA in the right paw, compared to control mice (C57BL6 mice; [2])"
"CCCCCC[N+]1(C)C[C@H](C(=O)N(CC)CC)C=C2c3cccc4[nH]cc(c34)C[C@H]21 (stereo partly drawn) [Compound 2, (6aR,9R)-9-(diethylcarbamoyl)-7-hexyl-7-methyl-4,6,6a, 7,8,9-hexahydroindolo[4,3-fg]quinolin-7-ium Iodide]",did not produce calcium flux,did not change,partly reduced,partial reversal,–,–
"CCN(CC)C(=O)[C@@H]1C=C2c3cccc4[nH]cc(c34)C[C@H]2[N+](C)(CC)C1 (stereo partly drawn) [Compound 1, (6aR,9R)-9-(diethylcarbamoyl)-7-ethyl-7-methyl-4,6,6a,7,8,9-hexahydroindolo[4,3-fg]quinolin-7-ium Iodide]",produced calcium flux,–,–,partial reversal,partly reduced,did not change

# Reference: patent US20260146039A1, “NEUR[…] THE TREATMENT OF PAIN, ITCH AND NERVE INJURY” (Cacti, Inc., priority 2023, published 2026)
